Measured values reported in ChEMBL document CHEMBL1128999, “Synthesis and evaluation of 2-aryl-4H-3,1-benzoxazin-4-ones as C1r serine protease inhibitors” (Bioorg Med Chem Lett, 1996).

Tests used:
[1] = target: T1, Complement C1r subcomponent (Homo sapiens, UniProt P00736); experiment: Inhibition of C1r serine protease
T1 sequence (P00736 whole entry): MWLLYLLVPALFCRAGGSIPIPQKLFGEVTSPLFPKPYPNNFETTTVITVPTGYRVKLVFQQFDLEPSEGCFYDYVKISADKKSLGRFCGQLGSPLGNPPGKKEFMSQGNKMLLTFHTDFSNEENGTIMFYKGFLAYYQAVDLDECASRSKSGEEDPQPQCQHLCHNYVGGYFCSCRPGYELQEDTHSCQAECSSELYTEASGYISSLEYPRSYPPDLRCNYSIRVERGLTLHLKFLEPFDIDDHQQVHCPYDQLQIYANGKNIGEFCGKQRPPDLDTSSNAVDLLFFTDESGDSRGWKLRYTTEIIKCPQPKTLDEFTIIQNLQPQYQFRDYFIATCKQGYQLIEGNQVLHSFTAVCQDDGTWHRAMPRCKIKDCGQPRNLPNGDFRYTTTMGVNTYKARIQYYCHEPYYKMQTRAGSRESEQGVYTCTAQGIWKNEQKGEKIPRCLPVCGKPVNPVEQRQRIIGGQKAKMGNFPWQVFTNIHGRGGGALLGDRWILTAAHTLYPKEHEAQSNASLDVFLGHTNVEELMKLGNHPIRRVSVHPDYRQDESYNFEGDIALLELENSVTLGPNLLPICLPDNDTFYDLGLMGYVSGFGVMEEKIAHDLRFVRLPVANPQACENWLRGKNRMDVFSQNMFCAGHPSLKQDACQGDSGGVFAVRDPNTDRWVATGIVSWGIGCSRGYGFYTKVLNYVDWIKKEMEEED

[2] = target: T1, Complement C1r subcomponent; experiment: (§1) Inhibitory activity against C1r serine protease
[3] = target: T1, Complement C1r subcomponent; experiment: as §1; remark: listed apart in the source
[4] = target: T2, Complement C1r subcomponent (Homo sapiens) (UniProt P00736); experiment: Compound was evaluated for percentage inhibitory activity against C1r serine protease in assay 1 at a concentration of 10 uM
T2 sequence (whole entry): T1 sequence (P00736 whole entry)

[5] = target: T2, Complement C1r subcomponent (Homo sapiens); details: at 10 µM
[6] = target: T1, Complement C1r subcomponent; experiment: Compound was evaluated for inhibitory activity against C1r serine protease in assay 1
Plasminogen = Plasminogen (Homo sapiens, UniProt P00747); experiment: Compound was evaluated for inhibitory activity against plasmin.
[7] = target: T3, Complement C1s subcomponent (Homo sapiens, UniProt P09871); experiment: Compound was evaluated for inhibitory activity against C1s serine protease.
T3 sequence (P09871 whole entry): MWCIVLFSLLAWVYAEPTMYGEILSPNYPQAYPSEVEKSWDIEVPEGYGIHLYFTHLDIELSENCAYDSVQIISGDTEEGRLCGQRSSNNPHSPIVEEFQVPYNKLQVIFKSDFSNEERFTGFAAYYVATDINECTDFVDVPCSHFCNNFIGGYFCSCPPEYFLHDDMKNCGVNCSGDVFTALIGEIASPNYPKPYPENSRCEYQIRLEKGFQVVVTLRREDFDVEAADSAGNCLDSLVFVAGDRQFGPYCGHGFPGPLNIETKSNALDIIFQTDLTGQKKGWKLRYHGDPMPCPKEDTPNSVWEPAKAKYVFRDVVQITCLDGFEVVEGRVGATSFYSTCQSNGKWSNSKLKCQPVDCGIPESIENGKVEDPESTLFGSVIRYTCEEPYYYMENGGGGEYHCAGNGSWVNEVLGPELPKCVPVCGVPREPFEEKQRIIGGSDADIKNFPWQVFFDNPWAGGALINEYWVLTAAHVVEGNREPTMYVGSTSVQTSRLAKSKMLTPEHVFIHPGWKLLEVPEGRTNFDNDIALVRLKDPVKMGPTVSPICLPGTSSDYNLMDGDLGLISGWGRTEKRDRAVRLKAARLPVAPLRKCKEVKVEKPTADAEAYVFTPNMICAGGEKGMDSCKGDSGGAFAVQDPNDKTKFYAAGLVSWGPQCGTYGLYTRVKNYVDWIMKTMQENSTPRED

[8] = target: T1, Complement C1r subcomponent; experiment: Compound was evaluated for inhibitory activity against C1r serine protease in assay 2 at t=60 min.
Prothrombin = Prothrombin (Homo sapiens, UniProt P00734); experiment: Compound was evaluated for inhibitory activity against Thrombin.
Kallikrein-1 = Kallikrein-1 (Homo sapiens, UniProt P06870); experiment: Compound was evaluated for inhibitory activity against Kallikrein.
[9] = target: T1, Complement C1r subcomponent; experiment: Compound was evaluated for inhibitory activity against C1r serine protease.
Serine protease 1 = Serine protease 1 (Homo sapiens, UniProt P07477); experiment: Compound was evaluated for inhibitory activity against Trypsin.
Serine protease 1, sequence (P07477 whole entry): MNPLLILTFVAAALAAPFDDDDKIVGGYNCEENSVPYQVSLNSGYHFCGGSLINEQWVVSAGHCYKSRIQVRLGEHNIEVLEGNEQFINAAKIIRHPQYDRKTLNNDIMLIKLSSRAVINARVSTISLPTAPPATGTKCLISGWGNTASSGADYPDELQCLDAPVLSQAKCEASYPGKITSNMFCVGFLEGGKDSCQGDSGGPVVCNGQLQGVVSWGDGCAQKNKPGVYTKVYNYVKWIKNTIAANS

Kallikrein-1, sequence (P06870 whole entry): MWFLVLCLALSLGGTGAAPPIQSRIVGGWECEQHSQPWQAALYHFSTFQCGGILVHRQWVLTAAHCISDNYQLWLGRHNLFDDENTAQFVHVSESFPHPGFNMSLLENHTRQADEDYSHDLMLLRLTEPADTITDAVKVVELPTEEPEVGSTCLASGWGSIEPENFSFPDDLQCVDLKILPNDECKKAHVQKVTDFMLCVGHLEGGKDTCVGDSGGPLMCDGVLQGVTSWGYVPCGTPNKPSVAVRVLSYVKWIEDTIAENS
Plasminogen, sequence (P00747 97-580 limits assumed): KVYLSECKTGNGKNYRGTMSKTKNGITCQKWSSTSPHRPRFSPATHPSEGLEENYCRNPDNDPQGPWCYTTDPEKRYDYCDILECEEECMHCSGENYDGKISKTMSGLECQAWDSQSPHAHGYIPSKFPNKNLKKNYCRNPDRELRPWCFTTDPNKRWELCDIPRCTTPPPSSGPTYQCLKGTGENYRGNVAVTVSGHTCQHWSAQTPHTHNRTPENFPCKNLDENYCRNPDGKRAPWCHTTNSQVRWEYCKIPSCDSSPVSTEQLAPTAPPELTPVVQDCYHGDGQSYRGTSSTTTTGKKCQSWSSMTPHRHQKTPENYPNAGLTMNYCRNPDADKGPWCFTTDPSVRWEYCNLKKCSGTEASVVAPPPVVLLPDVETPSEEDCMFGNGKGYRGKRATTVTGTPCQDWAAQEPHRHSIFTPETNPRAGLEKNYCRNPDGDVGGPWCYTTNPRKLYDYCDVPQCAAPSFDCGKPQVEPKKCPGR
Plasminogen, sequence (P00747 581-810 limits assumed): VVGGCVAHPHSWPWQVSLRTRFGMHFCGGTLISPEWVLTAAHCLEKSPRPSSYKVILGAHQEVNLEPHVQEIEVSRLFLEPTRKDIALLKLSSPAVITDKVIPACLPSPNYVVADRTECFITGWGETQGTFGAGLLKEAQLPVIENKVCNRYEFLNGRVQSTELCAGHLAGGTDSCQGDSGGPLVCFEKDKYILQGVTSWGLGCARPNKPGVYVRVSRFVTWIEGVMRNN

Row | Compound | IC50 [1] | IC50 [2] | IC50 [3] | other results
1 | O=c1oc(-c2ccccc2I)nc2cc3ccccc3cc12 | 0.7 µM | > 62.5 µM | > 62.5 µM | 
2 | O=c1oc(-c2ccccc2[N+](=O)[O-])nc2ccccc12 | 36.3 µM | 15 µM | > 62.5 µM | 
3 | O=c1oc(-c2ccccc2I)nc2cccc(Cl)c12 | 3 µM | 13.5 µM | 57 µM | 
4 | N=C(N)c1ccc2cc(OC(=O)c3ccc(N=C(N)N)cc3)ccc2c1 [NAFAMOSTAT] | 1 µM |  | 12 µM | IC50 [7]: 0.14 µM; IC50 (Prothrombin): 0.29 µM; IC50 (Kallikrein-1): 0.65 µM; IC50 [9]: 1.04 µM
5 | O=c1oc(-c2ccccc2Br)nc2ccccc12 | 9.5 µM | 32 µM | 46 µM | 
6 | COc1ccc2c(=O)oc(-c3ccccc3I)nc2c1 |  | > 62.5 µM | > 62.5 µM | inhibition [4]: 27%
7 | O=c1oc(-c2ccccc2C(F)(F)F)nc2ccccc12 | 4.2 µM | 35.4 µM | > 62.5 µM | 

Further lines, with some results ahead:

Row | IC50 [1] | IC50 [2] | IC50 [3] | Compound | other results
8 | 6 µM | 26 µM | 40 µM | O=c1oc(Cc2ccccc2I)nc2ccccc12 | 
9 | 1.7 µM | > 62.5 µM | > 62.5 µM | O=c1oc(-c2ccccc2I)nc2cc(Cl)c(Cl)cc12 | 
10 |  | > 62.5 µM | > 62.5 µM | COc1cc2nc(-c3ccccc3I)oc(=O)c2cc1OC | inhibition [4]: 18%
11 |  | > 62.5 µM | > 62.5 µM | O=C(O)c1ccccc1-c1nc2ccccc2c(=O)o1 | inhibition [5]: 25%
12 |  | 16.7 µM |  | O=c1oc(-c2ccccc2I)nc2ccccc12 | IC50 [6]: 1.4 µM; IC50 (Plasminogen): 6.68 µM; IC50 [7]: 1.25 µM; IC50 [8]: 50 µM; IC50 (Prothrombin): 0.51 µM; IC50 (Kallikrein-1): 9.89 µM; IC50 [9]: 1.37 µM; IC50 (Serine protease 1): 15.3 µM
13 |  | 22 µM | > 62.5 µM | O=c1oc(-c2ccccc2I)nc2cc([N+](=O)[O-])ccc12 | inhibition [5]: 0%
14 | 5 µM | > 62.5 µM | > 62.5 µM | COc1ccc2nc(-c3ccccc3I)oc(=O)c2c1 | 
15 | 3 µM | 7.8 µM | 27.3 µM | O=c1oc(-c2ccccc2I)nc2ccc(Cl)cc12 | 
